The values that follow come from ChEMBL document CHEMBL3243928, “N-(2,4,5-Trihydroxyphenehtyl)normetazocine, a potential irreversible inhibitor of the narcotic receptor” (J Med Chem, 1977).

Calls of active or inactive are those of the source. The rule behind the calls is not given here.

The subject of data set [1] is Mus musculus. The experiment in a line: Ratio of morphine to compound for analgesic activity in ip dosed mouse. The format is functional.
In data set [2] the test system is Mus musculus. Nature of the data set: Inhibition of norepinephrine release in sc dosed mouse heart administered 60 mins before [3H]-norepinephrine challenge. The format is functional.
In data set [3] the test system is NG108-15. The experiment in a line: Antagonist activity at opiate receptor in mouse/rat NG108-15 cells assessed as inhibition of adenylate cyclase activity at 10^-7 M after 3 mins. Type of data set: cell-based.
Data set [4] has as its system Mus musculus. The experiment in a line: Toxicity in mouse at 5 mg/kg, iv. The format is organism-based. On the set-up: dose 5 mg/kg, route intravenous. The settings on record: in vivo.
For data set [5], the system named is Mus musculus. The experiment in a line: Toxicity in iv dosed mouse. Type of data set: organism-based. The settings on record: in vivo.
Data set [6] has as its system Mus musculus. Nature of the data set: Toxicity in mouse at 80 mg/kg, iv. Type of data set: organism-based. On the set-up: dose 80 mg/kg, route intravenous. The settings on record: in vivo.
Data set [7] concerns NG108-15. The experiment in a line: Antagonist activity at opiate receptor in mouse/rat NG108-15 cells assessed as inhibition of adenylate cyclase activity at 10^-3 M after 3 mins. The format is cell-based.
The subject of data set [8] is Mus musculus. Nature of the data set: Antinociceptive activity in mouse at 50 mg/kg, sc by hot-plate assay. The format is functional, organism-based. On the set-up: dose 50 mg/kg. (Hot-plate and tail-flick tests time the reaction to a heat stimulus.)
Data set [9] deals with NG108-15. Nature of the data set: Antagonist activity at opiate receptor in mouse/rat NG108-15 cells assessed as inhibition of adenylate cyclase activity at 2 x 10^-4 M after 3 mins. The format is cell-based.
The test system of data set [10] is Mus musculus. Nature of the data set: Inhibition of norepinephrine release in mouse heart at >150 umol/kg, sc administered 60 mins before [3H]-norepinephrine challenge. Type of data set: functional, organism-based.
The target of data set [11] is Opioid receptor (Rattus norvegicus) (UniProt P33533+P34975+P33535). The experiment in a line: Ratio of morphine to compound for binding affinity to rat brain opiate receptor.
The mark [12] stands for this setting: Mus musculus, sc, read-out: ED50.

Chain of Opioid receptor (Rattus norvegicus) (P33533 whole entry, looked up): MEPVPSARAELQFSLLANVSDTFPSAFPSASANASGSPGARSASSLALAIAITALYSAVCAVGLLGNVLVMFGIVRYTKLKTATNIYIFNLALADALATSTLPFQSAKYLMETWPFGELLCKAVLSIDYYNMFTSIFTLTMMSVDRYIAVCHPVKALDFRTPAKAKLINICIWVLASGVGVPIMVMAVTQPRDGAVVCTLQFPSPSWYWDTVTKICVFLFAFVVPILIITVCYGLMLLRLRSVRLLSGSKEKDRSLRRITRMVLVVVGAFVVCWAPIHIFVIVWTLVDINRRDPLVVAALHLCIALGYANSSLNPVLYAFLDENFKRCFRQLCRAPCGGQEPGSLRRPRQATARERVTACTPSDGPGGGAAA
Chain of Opioid receptor (Rattus norvegicus) (P33535 whole entry, looked up): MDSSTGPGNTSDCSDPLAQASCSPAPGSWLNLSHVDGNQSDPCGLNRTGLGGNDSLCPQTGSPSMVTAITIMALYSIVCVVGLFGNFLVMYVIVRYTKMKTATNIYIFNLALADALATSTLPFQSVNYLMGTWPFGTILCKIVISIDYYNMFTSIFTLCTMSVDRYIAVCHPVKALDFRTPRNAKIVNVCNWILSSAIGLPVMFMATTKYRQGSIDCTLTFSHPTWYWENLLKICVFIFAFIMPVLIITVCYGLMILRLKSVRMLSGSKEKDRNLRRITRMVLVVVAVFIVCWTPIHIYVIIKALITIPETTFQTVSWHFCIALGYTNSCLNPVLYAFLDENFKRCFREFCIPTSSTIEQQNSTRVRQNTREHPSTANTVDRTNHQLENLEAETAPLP
Chain of Opioid receptor (Rattus norvegicus) (P34975 whole entry, looked up): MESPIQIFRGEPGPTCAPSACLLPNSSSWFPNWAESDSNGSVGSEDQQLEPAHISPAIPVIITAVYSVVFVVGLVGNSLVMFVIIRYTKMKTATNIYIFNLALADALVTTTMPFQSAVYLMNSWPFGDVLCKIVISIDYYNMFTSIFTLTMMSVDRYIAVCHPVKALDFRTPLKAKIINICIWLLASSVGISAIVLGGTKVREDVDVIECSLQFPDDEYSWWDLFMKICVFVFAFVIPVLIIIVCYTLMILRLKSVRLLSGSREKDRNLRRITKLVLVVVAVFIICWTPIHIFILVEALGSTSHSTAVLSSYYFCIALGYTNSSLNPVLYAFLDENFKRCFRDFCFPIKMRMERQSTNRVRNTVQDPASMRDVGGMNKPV

As to `COc1ccc(CCN2CCC3(C)c4cc(O)ccc4CC2C3C)cc1` (stereo not drawn), the Ratio in the data set with Mus musculus [1] is reported as 8.
For the compound `NCCc1cc(O)c(O)cc1O` [OXIDOPAMINE], in the data set with Mus musculus [2] (setting [12]), the ED50 (usually the dose at which the effect has come halfway, by size or by number of responders) is 6.8 µmol/kg.
As to `CN1CC[C@]23c4c5ccc(O)c4O[C@H]2[C@@H](O)C=C[C@H]3[C@H]1C5`, the inhibition entry in the data set with NG108-15 [3] is “Active”.
Compound `C[C@H]1C2Cc3ccc(O)cc3C1(C)CCN2` (stereo partly drawn) registered an LD100 in the data set with Mus musculus [4] of 10 mg/kg. Besides, the Activity entry with Mus musculus [5] was “Toxic”.
As for `CC1C2Cc3ccc(O)cc3C1(C)CCN2CCc1cc(O)c(O)cc1O.I` (stereo not drawn), the Activity entry with Mus musculus [6] was “Non-toxic”. In the data set on NG108-15 [7], the inhibition result was “Active”. The result in the data set on Mus musculus [8] was Active. For the same compound, the inhibition result in the data set on NG108-15 [9] and in the data set with Mus musculus [10] was “inactive” in each case. In the data set on Mus musculus [2], this compound had an ED50 of 0 µmol/kg.
With `Nc1ccc(CCN2CC[C@]34CCCC[C@H]3[C@H]2Cc2ccc(O)cc24)cc1`, in data set [11], the Ratio was greater than 10.
As for `CC1C2Cc3ccc(O)cc3C1(C)CCN2CCc1ccc(N)cc1` (stereo not drawn), the Ratio with Mus musculus [1] was found to be 20.
With `CN(C)CCc1ccc(O)cc1` [HORDENINE], the ED50 with Mus musculus [2] (setting [12]) was greater than 400 µmol/kg.
Consider `CC(N)Cc1cc(O)c(O)cc1O` (stereo not drawn), for which the ED50 in the data set with Mus musculus [2] (setting [12]) came to 4.2 µmol/kg.
In the case of `CC1C2Cc3ccc(O)cc3C1(C)CCN2CCc1ccccc1` (stereo not drawn) [PHENAZOCINE], the Ratio in the data set with Mus musculus [1] was determined as 10.
In turn, `COC(=O)[C@H]1[C@@H](OC(=O)c2ccccc2)C[C@@H]2CC[C@H]1N2C` [COCAINE] showed an ED50 in the data set with Mus musculus [2] of 0 µmol/kg.
As to `CC(N)Cc1ccc(O)cc1` (stereo not drawn) [HYDROXYAMPHETAMINE], in the data set on Mus musculus [2] (setting [12]), the ED50 amounted to 13 µmol/kg.
